In ChEMBL document CHEMBL1151499, “Synthesis of a piperidinomethylthiophene derivative as H2-antagonist with inhibitory activity against Helicobacter pylori” (Bioorg Med Chem Lett, 1996):
pIC50: −log10 of the molar value. Values after ≈ are worked out from the molar mass of the structure shown.

Legend:
Assay type in all cases: functional
Histamine H2 receptor = Histamine H2 receptor (Cavia porcellus, UniProt P47747); experiment: Histamine H2 receptor antagonistic activity
Helicobacter pylori = experiment: Compound was tested for inhibitory activity against Helicobacter pylori No. 9470
[1] = molecular target: Histamine H2 receptor (Cavia porcellus) (UniProt P47747); experiment: Compound was tested for Histamine H2 receptor antagonistic activity at 10 ug/ml
Sequence of Histamine H2 receptor (Cavia porcellus) (P47747 whole entry): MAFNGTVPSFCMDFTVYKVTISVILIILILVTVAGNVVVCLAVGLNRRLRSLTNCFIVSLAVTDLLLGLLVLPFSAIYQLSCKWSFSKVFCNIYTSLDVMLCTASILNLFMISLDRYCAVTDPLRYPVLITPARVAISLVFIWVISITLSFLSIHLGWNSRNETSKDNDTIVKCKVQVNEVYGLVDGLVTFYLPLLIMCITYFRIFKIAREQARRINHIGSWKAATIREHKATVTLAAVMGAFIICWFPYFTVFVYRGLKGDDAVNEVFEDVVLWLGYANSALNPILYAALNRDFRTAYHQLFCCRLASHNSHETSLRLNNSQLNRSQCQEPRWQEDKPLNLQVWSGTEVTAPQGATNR

Sequence of Histamine H2 receptor (P47747 whole entry): as above

| pIC50 (Histamine H2 receptor) | MIC (Helicobacter pylori) | inhibition [1] | SMILES |
| --- | --- | --- | --- |
| 5.74 | 12.5 µg/mL (≈ 33.3 µM) |  | C/N=c1\c(O)c(O)\c1=N/C/C=C\COc1csc(CN2CCCCC2)c1 |
| 6.35 | 100 µg/mL (≈ 277 µM) |  | Nc1c(NC/C=C\COc2csc(CN3CCCCC3)c2)c(=O)c1=O |
|  | 6.25 µg/mL (≈ 11.5 µM) | 39% | O=c1c(NC/C=C\COc2csc(CN3CCCCC3)c2)c(NCC(F)(F)C(F)(F)C(F)(F)F)c1=O |
| 6.13 | 25 µg/mL (≈ 60.3 µM) |  | N#CCCNc1c(NC/C=C\COc2csc(CN3CCCCC3)c2)c(=O)c1=O |
|  | 25 µg/mL (≈ 50.7 µM) | 43% | O=c1c(NC/C=C\COc2csc(CN3CCCCC3)c2)c(NCC(F)(F)C(F)(F)F)c1=O |
| 5.71 | 12.5 µg/mL (≈ 31 µM) |  | CC(C)/N=c1\c(O)c(O)\c1=N/C/C=C\COc1csc(CN2CCCCC2)c1 |
| 6.09 | > 100 µg/mL |  | CN(C)CC/N=c1\c(O)c(O)\c1=N/C/C=C\COc1csc(CN2CCCCC2)c1 |
| 5.98 | 1.56 µg/mL (≈ 3.83 µM) |  | O=c1c(NC/C=C\COc2csc(CN3CCCCC3)c2)c(NCCF)c1=O |
| 5.48 | > 100 µg/mL |  | CN/C(=C/[N+](=O)[O-])NCCSCc1ccc(CN(C)C)o1 [RANITIDINE] |
| 5.94 | > 100 µg/mL |  | COCC/N=c1\c(O)c(O)\c1=N/C/C=C\COc1csc(CN2CCCCC2)c1 |
| 5.90 | > 100 µg/mL |  | C=CCNc1c(NC/C=C\COc2csc(CN3CCCCC3)c2)c(=O)c1=O |
| 5.39 | > 100 µg/mL |  | CC(=O)OCC(=O)NCCCOc1cccc(CN2CCCCC2)c1 [ROXATIDINE ACETATE] |
| 6.16 | 100 µg/mL (≈ 311 µM) |  | CN(C)Cc1cc(OC/C=C\C/N=c2\c(O)c(O)c2=N)cs1 |

| SMILES | pIC50 (Histamine H2 receptor) | MIC (Helicobacter pylori) | inhibition [1] |
| --- | --- | --- | --- |
| CN/C(=N\CCSCc1nc[nH]c1C)NC#N [CIMETIDINE] |  | > 100 µg/mL |  |
